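Test compounds were applied to cells in 96-well plates for 48 hours at 5 doses. Here, GI50 denotes the concentration required for 50% inhibition of growth.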 The source made the active and inactive calls. Cut-off read from the data, not from the text of the source: active = GI50 up to about 1.1 µM and inactive = higher. Where only a bound is given, the exact number is not on record here.

Some test systems named below: 786-0; CCRF-CEM; HCT-116; HOP-62; K562; NCI-H226; NCI-H23; NCI-H522; OVCAR-4; OVCAR-8; RPMI-8226; SF-268; SK-MEL-5; SNB-19; IGROV-1; SF-539.
What all share (test): NCI anticancer screen, dose series, 48 h

For `O=C(CSc1nnc(-c2ccc(/N=C\c3ccc(Cl)cc3)cc2)o1)Nc1cccc([N+](=O)[O-])c1`, the GI50 in the assay with 786-0, with CCRF-CEM, in the assay with HCT-116, in the assay on HOP-62, in the assay on K562 and with NCI-H226 was > 100 µM (inactive) in each case. Moreover, the GI50 in the assay with NCI-H23 was > 100 µM (inactive); in the assay on NCI-H522, 27.5 µM (inactive); with OVCAR-4 it was > 100 µM (inactive); in the assay with OVCAR-8, > 100 µM (inactive); in the assay on RPMI-8226, > 100 µM (inactive); with SF-268, > 100 µM (inactive). Besides, the GI50 in the assay with SK-MEL-5 and in the assay with SNB-19 was > 100 µM (inactive) in each case.
On to `COC(=O)/C(=N\NC(=O)c1ccccc1O)C(C#N)c1ccc(Cl)cc1` (stereo not drawn), for which the GI50 is 18 µM (inactive) in the assay on 786-0; 36.8 µM (inactive) in the assay with CCRF-CEM; 30.3 µM (inactive) in the assay on HCT-116; 14.6 µM (inactive) in the assay with HOP-62; 7.4 µM (inactive) with IGROV-1; 37.9 µM (inactive) in the assay on K562. Also, the GI50 with NCI-H23 is 24.4 µM (inactive); in the assay with NCI-H522, 25.2 µM (inactive); in the assay on OVCAR-4, 26.7 µM (inactive); in the assay with OVCAR-8 it was 28.1 µM (inactive); in the assay with SF-268 it was 13.2 µM (inactive); in the assay with SF-539, 9.29 µM (inactive). Moreover, the GI50 in the assay on SK-MEL-5 was 16.7 µM (inactive).
Regarding `CCC12C[N+]3([O-])CCc4c([nH]c5ccccc45)C(C(=O)OC)(c4cc5c(cc4OC)N(C)C4C(O)(C(=O)OC)C(OC(C)=O)C6(CC)C=CCN7CCC54C76)CC(C3)C1O2` (stereo not drawn), the GI50 with 786-0 is 0.461 µM (active); in the assay on CCRF-CEM, 0.401 µM (active); with HCT-116, 0.41 µM (active); in the assay with HOP-62, 23.7 µM (inactive); in the assay on IGROV-1 it was 0.968 µM (active); with K562, 0.207 µM (active). The GI50 is 0.465 µM (active) with NCI-H23; 0.063 µM (active) in the assay with NCI-H522; 13.3 µM (inactive) in the assay on OVCAR-4; 2.67 µM (inactive) with OVCAR-8; 0.331 µM (active) with RPMI-8226; 0.675 µM (active) in the assay with SF-268. Further, the results for the GI50 in the assay on SF-539, in the assay with SK-MEL-5 and in the assay on SNB-19 were 0.28 µM (active), 0.288 µM (active) and 0.597 µM (active), respectively.
`O=C1C(=O)N(c2nccs2)C(=O)C(=O)C1c1nc2ccccc2s1`: the GI50 with 786-0, with HCT-116, with HOP-62, in the assay on IGROV-1, with NCI-H226 and in the assay with NCI-H23 was > 100 µM (inactive) each time. For the same molecule, the GI50 in the assay on OVCAR-4, in the assay with OVCAR-8, in the assay on RPMI-8226, in the assay on SF-268, in the assay with SF-539 and with SNB-19 was > 100 µM (inactive) in each case.
Regarding `CCc1c(C#N)c(=O)[nH]c(=O)n1CCN1CCN(C(=O)NCCCCCCNC(=O)N2CCN(CCn3c(CC)c(C#N)c(=O)[nH]c3=O)CC2)CC1`, the GI50 with 786-0, in the assay with CCRF-CEM, in the assay with HCT-116, with HOP-62, with IGROV-1 and in the assay with K562 was > 100 µM (inactive) each time. Further, the GI50 in the assay on OVCAR-4, in the assay with OVCAR-8, in the assay on RPMI-8226, in the assay on SF-539, with SK-MEL-5 and in the assay with SNB-19 was > 100 µM (inactive) throughout.
With `COc1ccccc1-c1cc(=O)c2cc(C)c(C)c(C(=O)O)c2o1`, the GI50 in the assay on 786-0, with CCRF-CEM, in the assay on HCT-116, with HOP-62, in the assay with IGROV-1 and with K562 was > 100 µM (inactive) in each case. Moreover, the GI50 in the assay on NCI-H23, in the assay with NCI-H522, in the assay on OVCAR-4, in the assay with OVCAR-8, in the assay on RPMI-8226 and with SF-268 was > 100 µM (inactive) throughout. Besides, the GI50 in the assay with SF-539, with SK-MEL-5 and with SNB-19 was > 100 µM (inactive) each time.
`CC1(Cc2ccccc2)NC(=S)NC1=O` (stereo not drawn): the GI50 with 786-0, with HOP-62, with NCI-H226, in the assay on NCI-H23, in the assay on NCI-H522 and in the assay on OVCAR-8 was > 100 µM (inactive) in each case. For the same molecule, the GI50 in the assay on SF-268, in the assay on SF-539 and with SNB-19 was > 100 µM (inactive) in each case.
With `O=C(CSc1nnc(-c2ccc(/N=C\c3ccc(Cl)cc3)cc2)o1)Nc1ccc([N+](=O)[O-])cc1`, the GI50 with 786-0 was 19.8 µM (inactive); in the assay with CCRF-CEM it was 18.5 µM (inactive); with HCT-116, 2.58 µM (inactive); in the assay with HOP-62, 32.1 µM (inactive); in the assay on K562, 21.2 µM (inactive); in the assay with NCI-H226 it was 21.9 µM (inactive). The GI50 was 19.4 µM (inactive) in the assay with NCI-H23; 20.9 µM (inactive) in the assay with NCI-H522; 26.2 µM (inactive) with OVCAR-4; 37.6 µM (inactive) in the assay with OVCAR-8; 2.45 µM (inactive) in the assay on RPMI-8226; 24.3 µM (inactive) in the assay on SF-268. Moreover, the figures for the GI50 with SK-MEL-5 and in the assay on SNB-19 were 18.4 µM (inactive) and 16.6 µM (inactive), respectively.
Take `COc1cc(/C=C2\NC(=O)C3Cc4c(OC)c(C)c(OC)c(OC)c4C2N3C)c(OC)c(C)c1OC` (stereo not drawn): the GI50 with 786-0, in the assay on CCRF-CEM, in the assay with HCT-116, with HOP-62, in the assay on IGROV-1 and in the assay on K562 was > 100 µM (inactive) in each case. Further, the GI50 in the assay on NCI-H226 is > 100 µM (inactive); in the assay on NCI-H23 it was > 100 µM (inactive); in the assay on NCI-H522, 99.5 µM (inactive); in the assay with OVCAR-4 it was > 100 µM (inactive); with OVCAR-8 it was > 100 µM (inactive); in the assay on SF-268, > 100 µM (inactive). Besides, the GI50 in the assay on SF-539, with SK-MEL-5 and in the assay with SNB-19 was > 100 µM (inactive) in each case.
Turning to `COC1=CC(=O)C(Br)=CC1=O`, the GI50 was 18.6 µM (inactive) in the assay on 786-0; 2.54 µM (inactive) in the assay with CCRF-CEM; > 100 µM (inactive) in the assay with HOP-62; 17.3 µM (inactive) in the assay with IGROV-1; 3.06 µM (inactive) with K562; 18.9 µM (inactive) in the assay on NCI-H23. The GI50 in the assay with NCI-H522 is 8.69 µM (inactive); in the assay with OVCAR-4, 17.9 µM (inactive); in the assay with OVCAR-8, 26.9 µM (inactive); in the assay on RPMI-8226, 21.6 µM (inactive); in the assay on SF-268 it was 18.6 µM (inactive); in the assay on SK-MEL-5, 17.9 µM (inactive). Further, the GI50 in the assay on SNB-19 is 17.8 µM (inactive).
For `O=C(c1nc2ccc(Cl)cc2nc1O)C(O)c1ccc2c(c1)OCO2` (stereo not drawn), the GI50 was > 100 µM (inactive) in the assay with 786-0; 4.17 µM (inactive) with CCRF-CEM; > 100 µM (inactive) in the assay on HOP-62; > 100 µM (inactive) in the assay with IGROV-1; 53.8 µM (inactive) with K562; > 100 µM (inactive) in the assay with NCI-H226. Also, the GI50 in the assay with NCI-H23 was > 100 µM (inactive); with NCI-H522 it was 13.3 µM (inactive); in the assay with OVCAR-4, 71.4 µM (inactive); in the assay on OVCAR-8 it was > 100 µM (inactive); in the assay on RPMI-8226, 7.4 µM (inactive); in the assay with SF-268, 91 µM (inactive).
In the case of `CSc1nc2c(nc(N)n2C2OC(CO)C(O)C(O)C2O)c(=O)[nH]1` (stereo not drawn), the GI50 in the assay with 786-0, in the assay on CCRF-CEM, in the assay on HCT-116, in the assay with HOP-62, in the assay with IGROV-1 and in the assay on K562 was > 100 µM (inactive) throughout. For the same molecule, the GI50 with NCI-H226, in the assay with NCI-H23, in the assay with NCI-H522, in the assay on OVCAR-4, with OVCAR-8 and with SF-268 was > 100 µM (inactive) each time. Moreover, the GI50 in the assay on SF-539, with SK-MEL-5 and in the assay with SNB-19 was > 100 µM (inactive) in each case.
For `CC1=C2C(=CC(C)(C)C2O)C(=O)C(C)(O)C12CC2` (stereo not drawn), the GI50 in the assay with 786-0 was 0.00759 µM (active); in the assay on CCRF-CEM, 0.00531 µM (active); in the assay with HCT-116 it was 0.00325 µM (active); in the assay on HOP-62 it was 0.0119 µM (active); in the assay with IGROV-1, 0.0153 µM (active); in the assay on K562, 0.00558 µM (active). The GI50 with NCI-H226 was 0.033 µM (active); in the assay with NCI-H23, 0.00681 µM (active); in the assay on NCI-H522, 0.00469 µM (active); in the assay with OVCAR-4 it was 0.00513 µM (active); in the assay with OVCAR-8 it was 0.00948 µM (active); with SF-268, 0.00658 µM (active). The GI50 was 0.0209 µM (active) in the assay on SF-539, 0.00567 µM (active) with SK-MEL-5 and 0.019 µM (active) in the assay on SNB-19.
Consider `O=C(Nc1ccccc1)OCc1nc2c([nH]1)C(=O)C=CC2=O`, for which the GI50 in the assay on 786-0 was 18.3 µM (inactive); in the assay with CCRF-CEM it was 3.34 µM (inactive); with HCT-116, 14.9 µM (inactive); in the assay on HOP-62, > 100 µM (inactive); with IGROV-1 it was 16.9 µM (inactive); with K562 it was 2.55 µM (inactive). In addition, the GI50 in the assay on NCI-H226 is 18.7 µM (inactive); in the assay with NCI-H23 it was 19.4 µM (inactive); with OVCAR-4 it was 14.3 µM (inactive); in the assay with OVCAR-8, 15.5 µM (inactive); in the assay with RPMI-8226, 18.7 µM (inactive); with SF-539, > 100 µM (inactive). The GI50 in the assay with SK-MEL-5 is 14.3 µM (inactive); in the assay on SNB-19, 13.8 µM (inactive).

The values above are taken from ChEMBL document CHEMBL1201862, “PubChem BioAssay data set” (2004).
